We go through three compounds from patent US12605397B2, “Deoxy-cytidine or uridine derivatives for use in cancer therapies” (HEMISPHERIAN AS, priority 2019, dated 2026).

Where only a bound is given, the exact number is not on record here.

Series [1] deals with U87-MG. Briefly: Glioblastoma Multiforme mouse xenograft model. The settings on record: five doses; for tumour volume: over all time points. Type of series: in vivo, mice. As for the experimental part: Standard agent, Temozolomide, was provided by Oslo University Hospital in powder form and was formulated fresh prior to each dose by first adding appropriate volume of DMSO to pre-weighed compound, then adding appropriate volumes of Solutol (RTM) and PBS (5% DMSO/5% Solutol (RTM)/90% PBS). […] Standard agent, Temozolomide, was administered at a dose volume of 10 mL/kg.
The human brain malignant glioma cell line, U87-MG (ATCC HTB-14, epithelial glioblastoma), was obtained from American Type Culture Collection (ATCC). The cells were cultured in Minimum essential medium containing 5% fetal bovine serum (FBS) at 37° C., with 5% CO2 in an incubator.
Female (nu/nu) nude mice aged 6-7 weeks obtained from BioLasco Taiwan (under Charles River Laboratories Licensee) were used. The animals were housed in individually ventilated cages (IVC, 36 Mini Isolator system). The allocation for 5 animals was 27×20×14 in cm. All animals were maintained in a hygienic environment under controlled temperature (20-24° C.) and humidity (30%-70%) with 12-hour light/dark cycle.
Viable U87-MG (ATCC HTB-14) cells were subcutaneously (SC) implanted (5×10^6 cells/mouse in PBS at 0.2 mL/mouse) into the right flank of female nu/nu mice. When group mean tumor volumes reached approximately 129 mm^3 to 131 mm^3, tumor implanted mice were divided into four treatment groups, each group containing eight animals, and dose administrations were initiated (denoted as Day 1).
5-hydroxymethyl-2′-deoxycytidine, 5-formyl-2′-deoxycytidine at 2000 mg/kg and corresponding vehicle (5% DMSO/5% Solutol (RTM)/90% PBS) were administered intraperitoneally (IP) once every three days for a total of five administrations. Temozolomide at 40 mg/kg was administered orally (PO) once daily for five total administrations.
The tumor volume, body weight, mortality, and signs of overt toxicity were monitored and recorded twice weekly for 29 days. Tumor volume (mm^3) was estimated according to the ellipsoid formula as: length×(width)^2×0.5. Tumor growth inhibition (T/C) was calculated by the following formula:
[formula] • Cn: Tumor weight measured on Day n in the control group • Tn: Tumor weight measured on Day n in the treated group • % T/C value≤42% was considered significant antitumor activity (#). Percent tumor growth inhibition (TGI) was also calculated by the following formula:
[formula] • % TGI value≥58% was considered significant antitumor activity (#).
Two-way ANOVA (RTM) followed by Bonferroni test was also used to ascertain the statistically significant difference compared to the negative control group during study; Day 1 through to Day 29. Differences are considered significant at p<0.05 (*).
5-formyl-2′deoxycytidine and 5-hydroxymethyl-2′-deoxycytidine were evaluated in a Glioblastoma Multiforme mouse xenograft model as described above (Materials and Methods). U87-MG cells were injected subcutaneously into the flank of nude mice. Tumours were allowed to form as described above (Materials and Methods). After the tumours reached between 129 mm^3 and 131 mm^3 animals were divided into 4 groups—two treatment groups, a negative control group and a positive control group. The two treatment groups were 5-formyl-2′-deoxycytidine and 5-hydroxymethyl-2′-deoxycytidine. […]
The tumour volume (FIG. 1C), body weight (FIG. 1D), mortality, and signs of overt toxicity were monitored and recorded twice weekly for 29 days. […]

Series [2] has as its system NCI-N87 cells. Briefly: Survival assay (MTT), NCI-N87. Format: cell-based, human. The settings on record: Homo sapiens. The procedure:
(§1) Cells were passed between 70 and 90% confluence.
(§2) Cells were incubated with the drugs for 72 hours.

In series [3] the test system is Arpe19 cells. The series can be described thus: Survival assay (MTT), Arpe19. The conditions noted are these: Homo sapiens. Type of series: cell-based, human. The procedure: as §2
The present inventors further investigated the extent to which these compounds kill normal human cells; low cytotoxicity against normal human cells is advantageous property for anti-cancer agents. The cytotoxicity of these compounds in various normal human cell lines was therefore investigated (Table 3). Cells were grown and the survival assay was performed as described above (Materials and Methods).

The test system of series [4] is G144 cells. The series can be described thus: Survival assay (MTT), G144. The conditions noted are these: Homo sapiens, G144, Glioma, Grade IV, 72 hours. Type of series: cell-based, human. The procedure:
Primary glioma neural stem (GNS) cells (G7, G14, G144, G166) were cultured on poly-D-lysine (Merck Millipore, Cat. Nr. A-003-E) and laminin (R&D Systems, Cat.Nr. 3446-005-01) coated plates in neural stem cell medium (50% DMEM-F12 (Thermofisher, Cat. Nr. 21041025), 50% neurobasal medium (Thermofisher, Cat. Nr. 10888-022), N2 (Life Technologies, Cat. Nr. A-003-E) and B27 supplements (Life Technologies, Cat.Nr. 12587010), 1 mM sodium pyruvate (Life Technologies, Cat.Nr. 11360-039), 2 mM glutamax (Life Technologies, Cat. Nr. 35050038), 1 mM HEPES (Fisher Scientific, Cat. Nr. BP299-1), 0.1 mM β-mercaptoethanol (Life Technologies, Cat. Nr. 31350010), 1× nonessential amino acids (Life Technologies, Cat. Nr. 11140-035), 0.006% bovine serum albumin (Sigma, Cat. Nr. A8577-10ML), 4 μg/ml heparin (Sigma, Cat. Nr. H3149-25KU), 100 U/ml penicillin, 100 μg/ml streptomycin, 20 ng/ml hEGF (R&D Systems, Cat. Nr. 236-EG-200), 10 ng/ml bFGF (Peprotech, Cat. Nr. 100-18B).
as §2

For series [5], the system named is U87-MG cells. The series can be described thus: Survival assay (MTT), U87-MG. The conditions noted are these: for cytotoxicity to U87-MG cells (cell survival): up to 100 μM; for IC50: U87-MG; for rescue of cytotoxicity by the addition of thymidine: U87-MG cells; for cytotoxic effect in combination with Temozolomide: temozolomide resistant U87-MG cells.
Description: Cell lines not mentioned above were grown in DMEM (Sigma, Cat.Nr. D6429) supplemented with 10% Fetal Bovine Serum and 100 U/ml penicillin 100 U/ml streptomycin. All cells were maintained in a 5% CO2, humidified, water-jacketed incubator at 37° C. Cells were passed between 70 and 90% confluence.
In a 96-well plate, 4000 cells in 100 μl of corresponding medium were seeded. The following day, drugs, diluted in DMSO, were added in 8 concentrations in triplicate. Drugs were added as a 4-fold dilution series starting from 100 μM. Cells were incubated with the drugs for 72 hours. Cell proliferation was assessed by MTT assay according to the manufacturer's protocol (ATCC, Cat. Nr. 30-1010K). Cell survival was normalized to the survival of cells treated with DMSO only. Experiment was performed three times, data represent mean of nine wells±SEM.
In a 96-well plate, 4000 cells in 100 μl of corresponding medium were seeded. The following day, drugs, diluted in DMSO, were added in triplicate at a concentration of 100, 25, 6.25, 1.56, 0.39, 0.1, 0.02, or 0.006 ┘M. Cells were incubated with the drugs for 72 hours. Cell proliferation was assessed by MTT assay according to the manufacturer's protocol (ATCC, Cat. Nr. 30-1010K). Cell survival was normalized to the survival of cells treated with DMSO only. Experiment was performed three times, data represent mean of nine wells±SEM.
In series [6] the test system is G26 cells. Briefly: Survival assay (MTT), G26. Format: cell-based, human. The settings on record: Homo sapiens, G26, Glioma, Grade IV, 72 hours. As for the experimental part:
as §1, §2

Series [7] deals with U937 cells. Briefly: Survival assay (MTT), U937. The settings on record: Homo sapiens, U-937. Type of series: cell-based, human. The procedure:
as §1, §2

Series [8] concerns A375 cells. Briefly: Survival assay (MTT), A375. Type of series: cell-based, human. The conditions noted are these: Homo sapiens, A-375. As for the experimental part: as §1, §2
Setting [9] is: 2000 mg/kg IP every three days, end of study (Day 29).
Where [10] appears, read: NCI-N87, Gastric Carcinoma, 72 hours, MTT.
The mark [11] stands for this setting: NCI-N87, Tables 6 and 7, unit inferred.
Where [12] appears, read: ARPE-19, 72 h, Arpe19, Normal, Ectoderm, 72 hours, MTT.
Setting [13] is: ARPE-19, ARPE19, Tables 6 and 7, unit inferred.
[14] abbreviates: 72 hours, MTT, listed as 5-hydroxymethyl-2′-deoxycytidine.
Setting [15] is: Homo sapiens, U-87 MG, Tables 6 and 7, unit inferred.
Setting [16] is: U937, Tables 6 and 7, unit inferred.
[17] abbreviates: A375, Malignant Melanoma, 72 hours, MTT.
Setting [18] is: A375, Tables 6 and 7, unit inferred.
Setting [19] is: Homo sapiens, U-87 MG, 72 h, Glioma, Grade IV, MTT.

Take `Nc1nc(=O)n([C@H]2C[C@H](O)[C@@H](CO)O2)cc1CO` [2d5hmC, 5-hydroxymethyl-2′-deoxycytidine]: in series [1] (setting [9]), the “tumour growth inhibition (TGI)” value came out at 93%. Further, the tumour volume entry in series [1] (2000 mg/kg IP every three days) is given as “marked decrease in tumour volume”. In addition, the IC50 was more than 25 µM in series [2] (setting [10]); not below 25 µM in series [2] (setting [11]); more than 25 µM in series [3] (setting [12]); not below 25 µM in series [3] (setting [13]); more than 100 µM in series [4]; 3.03 µM in series [5] (setting [15]). Moreover, the IC50 in series [5] (Glioma, Grade IV, 72 hours, MTT) was more than 0.334 µM; in series [6], more than 100 µM; in series [7] (U937, Lymophoma, 72 hours, MTT), more than 25 µM; in series [7] (setting [16]) it was not below 25 µM; in series [8] (setting [17]) it was more than 25 µM; in series [8] (setting [18]), not below 25 µM. Besides, the “cytotoxicity to U87-MG cells (cell survival)” value was “cytotoxic” in series [5] (setting [14]) and “markedly more cytotoxic” in series [5] (72 hours, MTT, listed as d5hmC). Besides, the “rescue of cytotoxicity by the addition of thymidine” value in series [5] (72 hours, MTT) was “not rescued”. In addition, the “cytotoxic effect in combination with Temozolomide” value in series [5] (setting [14]) is reported as “synergistically”; in series [5] (72 hours, MTT, listed as d5hmC), “more effective”.

With `Nc1nc(=O)n([C@H]2C[C@H](O)[C@@H](CO)O2)cc1C=O` [2d5fC, 5-formyl-2′-deoxycytidine], the “tumour growth inhibition (TGI)” value in series [1] (setting [9]) is given as 83%. Further, in series [1] (2000 mg/kg IP every three days), the tumour volume result is recorded as “marked decrease in tumour volume”. Further, the IC50 in series [2] (setting [10]) is 0.806 µM; in series [2] (setting [11]), 0.806 µM; in series [3] (setting [12]) it was more than 25 µM; in series [3] (setting [13]), not below 25 µM; in series [4] it was more than 100 µM; in series [5] (setting [19]), 0.334 µM. The IC50 in series [5] (setting [15]) is 0.334 µM; in series [6], 28.1 µM; in series [7] (U937, Lymophoma, 72 hours, MTT) it was 0.954 µM; in series [7] (setting [16]), 0.954 µM; in series [8] (setting [17]) it was 3.19 µM; in series [8] (setting [18]), 3.19 µM. Moreover, the “cytotoxicity to U87-MG cells (cell survival)” value in series [5] (72 hours, MTT) is recorded as “markedly more cytotoxic”. Also, the “rescue of cytotoxicity by the addition of thymidine” value in series [5] (72 hours, MTT) was “not rescued”. For the same compound, the “cytotoxic effect in combination with Temozolomide” value in series [5] (72 hours, MTT, listed as 5-formyl-2′-deoxycytidine) is “synergistically”; in series [5] (72 hours, MTT, listed as d5fC), “more effective”.

For `Cn1nnc2c(C(N)=O)ncn2c1=O` [Temozolomide, 4-methyl-5-oxo-2,3,4,6,8-pentazabicyclo[4.3.0]nona-2,7,9-triene-9-carboxamide, reference compound], in series [1] (positive control, 40 mg/kg PO once daily, end of study), the “tumour growth inhibition (TGI)” value turned out to be 94%. For the same compound, the IC50 in series [2] (setting [10]) is more than 25 µM; in series [3] (setting [12]) it was more than 25 µM; in series [4], 14.7 µM; in series [5] (setting [19]), more than 25 µM; in series [6], 7.34 µM; in series [7] (U937, Lymophoma, 72 hours, MTT), 13.1 µM. This compound also returned a concentration for half-maximal inhibition (IC50) in series [8] (setting [17]) of more than 25 µM.

The term IC50 denotes the concentration needed to halve the response being measured. Low values mean greater potency in that assay, high ones weaker potency in that assay.
